Where “and” joins values, the source holds several entries; their conditions need not be identical. Identical values can stand only once.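 Where inhibition never reached the appropriate level, the endpoint shown equals the highest concentration tested. Otherwise, values were interpolated linearly from a five-concentration, 48-hour dose response in 96-well plates. GI50: concentration for 50% inhibition of growth. TGI denotes the concentration required for complete inhibition of growth.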
What was measured:
Test in all cases: inhibition of tumour cell growth, NCI panel, 48 h
M14 melanoma = tested on: M14 melanoma
KM12 colon = tested on: KM12 colon
HOP-92 NSCLC = tested on: HOP-92 NSCLC
SF-539 CNS = tested on: SF-539 CNS
U251 CNS = tested on: U251 CNS
CCRF-CEM leukemia = tested on: CCRF-CEM leukemia
TK-10 renal = tested on: TK-10 renal
SK-MEL-5 melanoma = tested on: SK-MEL-5 melanoma
HOP-62 NSCLC = tested on: HOP-62 NSCLC
NCI-H226 lung = tested on: NCI-H226 lung

Compound	TGI (M14 melanoma)	TGI (KM12 colon)	TGI (HOP-92 NSCLC)	TGI (SF-539 CNS)	TGI (U251 CNS)	TGI (CCRF-CEM leukemia) [µM]	TGI (TK-10 renal)	TGI (SK-MEL-5 melanoma)	TGI (HOP-62 NSCLC)	TGI (NCI-H226 lung)	GI50 (KM12 colon) [µM]	GI50 (HOP-92 NSCLC) [µM]	GI50 (SF-539 CNS) [µM]	GI50 (U251 CNS) [µM]	GI50 (CCRF-CEM leukemia) [µM]	GI50 (TK-10 renal) [µM]	GI50 (SK-MEL-5 melanoma) [µM]	GI50 (HOP-62 NSCLC) [µM]	GI50 (M14 melanoma) [µM]
COC(=O)NC1C(C)OC(OC2C/C=C(/C)C3C=CC4C(OC5CC(OC6CC(OC7CC(O)C(O)C(C)O7)C(OC7CC(O)C(OC)C(C)O7)C(C)O6)C(O)C(C)O5)C(C)CC(C)C4C3(C)/C(O)=C3\C(=O)OC4(CC(C)C(CO)=CC4/C=C\2C)C3=O)CC1(C)[N+](=O)[O-] (stereo not given)	77 µM	20.5 µM	32.5 µM	> 100 µM	44.9 µM	15.9	40.6 µM	> 100 µM	37.8 µM	–	–	–	–	–	–	–	–	–	–
CC1C(=O)C(C)C(c2ccco2)N(N=O)C1c1ccco1 (stereo not given)	–	> 100 µM	> 100 µM	> 100 µM	> 100 µM	> 100	–	> 100 µM	> 100 µM	> 100 µM	–	–	–	–	–	–	–	–	–
Nc1nc(OCC2CCCCC2)c2[nH]cnc2n1	57.8 µM	> 100 µM	42.7 µM	45 µM	> 73.7 µM	43.6	30.5 µM	67.2 µM	53.9 µM	73.7 µM	–	–	–	–	–	–	–	–	–
Cc1[nH]n(-c2ccccc2)c(=O)c1C(N(CCc1ccccc1)C1=NCC(C)S1)(C(F)(F)F)C(F)(F)F (stereo not given)	32.2 µM	> 100 µM	58.5 µM	32.3 µM	31.2 µM	68.7	> 100 µM	21.5 µM	87.6 µM	29.5 µM	–	–	–	–	–	–	–	–	–
CC(=O)OCC1OC(Oc2cc(C)c(O)cc2C/C=C(\C)CC/C=C(\C)C[C@@H](C=C(C)C)OC(C)=O)C(O)C(OC(C)=O)C1OC(C)=O (stereo not given in full)	> 50 µM	> 50 µM	> 50 µM	–	> 50 µM	29.4	> 50 µM	18.7 µM	> 50 µM	–	–	–	–	–	–	–	–	–	–
c1c2c(cc3c1OCO3)-c1cc3ccc4c(c3c[n+]1CC2)OCO4	5.9 µM	> 5.45 µM	> 12.5 µM	3.12 µM	> 11.4 µM	> 12.5	> 12.5 µM	> 5 µM	> 12.5 µM	> 11.1 µM	–	–	–	–	–	–	–	–	–
O=C(NC(Cc1ccc(I)cc1)C(=O)O)c1ccc(Cl)cc1 (stereo not given)	–	> 100 µM	> 100 µM	> 100 µM	> 100 µM	> 100	–	> 100 µM	> 100 µM	> 100 µM	–	–	–	–	–	–	–	–	–
CN(C)c1ccc(/C=c2/c3ccccc3n3c2cc(NC(=O)NCCC[N+](C)(C)C)[n+]3C)cc1	> 100 µM	> 100 µM	> 100 µM	> 100 µM	> 100 µM	2.04	> 100 µM	> 100 µM	> 100 µM	–	–	–	–	–	–	–	–	–	–
Oc1ccc(-c2nc3cc(F)ccc3s2)cc1	47.6 µM	52.5 µM	47.1 µM	–	42.6 µM	> 100	56 µM	41.6 µM	63 µM	39.7 µM	–	–	–	–	–	–	–	–	–
CNC(C)Cc1ccccc1OC (stereo not given)	> 100 µM	> 100 µM	> 100 µM	> 100 µM	> 100 µM	> 100	> 100 µM	> 100 µM	> 100 µM	> 100 µM	–	–	–	–	–	–	–	–	–
C[n+]1c2ccccc2c(CNC(CS)C(=O)O)c2ccccc21 (stereo not given)	> 100 µM	57.5 µM	52 µM	35.8 µM	66.7 µM	62.4	> 100 µM	–	39.1 µM	82.1 µM	–	–	–	–	–	–	–	–	–
O=c1c2cc(S(=O)(=O)O)ccc2nc(COc2ccc(Oc3ccc(Cl)cc3Cl)cc2)n1C(=S)Nc1ccc(Cl)cc1	40.9 µM	71.4 µM	43.3 µM	31.9 µM	35.5 µM	> 100	40.4 µM	33.1 µM	44.4 µM	42.4 µM	–	–	–	–	–	–	–	–	–
CCSc1nc(-c2cccs2)nc2ccc(I)cc12	> 100 µM	> 100 µM	–	> 100 µM	> 100 µM	> 100	> 100 µM	> 100 µM	> 100 µM	> 100 µM	–	–	–	–	–	–	–	–	–
O=C1OC2(OC2c2ccc(Cl)cc2)c2ccccc21 (stereo not given)	> 100 µM	> 100 µM	> 100 µM	> 100 µM	–	> 100	> 100 µM	–	41.6 µM	> 100 µM	–	–	–	–	–	–	–	–	–
COC(=O)/C=C1\CCCN1CCc1cc2c(cc1CC#N)OCO2	> 100 µM	> 100 µM	> 100 µM	> 100 µM	> 100 µM	> 100	> 100 µM	81.2 µM	> 100 µM	> 100 µM	–	–	–	–	–	–	–	–	–
COC(=O)c1ccccc1C1=C([N+](=O)[O-])C(c2cccc(Br)c2)C(C#N)=C(N)O1 (stereo not given)	77.5 µM	–	62.1 µM	> 100 µM	> 100 µM	61.8	> 100 µM	> 100 µM	> 100 µM	> 100 µM	–	–	–	–	–	–	–	–	–
CC1(C=O)CCC23COC4(CCC5C6(C)CCC(OC7OCC(OC8OC(CO)C(O)C(OC9OC(CO)C(O)C(O)C9O)C8OC8OCC(O)C(O)C8O)C(O)C7OC7OC(CO)C(O)C(O)C7O)C(C)(C)C6CCC5(C)C4(C)CC2O)C3C1 (stereo not given)	2.85 µM	1.42 µM	1.53 µM	2.63 µM	> 100 µM	0.789	3.33 µM	2.96 µM	3.6 µM	3.47 µM	–	–	–	–	–	–	–	–	–
COc1cc([N+](=O)[O-])ccc1NC(=O)c1cccc([N+](=O)[O-])c1O	> 100 µM	> 100 µM	–	75.2 µM	> 100 µM	> 100	–	31 µM	> 100 µM	> 100 µM	–	–	–	–	–	–	–	–	–
CC1(O)COCCCCOc2c(CN)cccc2NC(=O)c2nc(cnc2N)-c2ccc(cc2)S(=O)(=O)C(C)(C)C1 (stereo not given)	–	2.93 µM	2.74 µM	1.67 µM	2.22 µM	1.25	3.34 µM	2.56 µM	3.17 µM	–	1.43	1.31	0.03	0.715	< 0.01	1.64	1.25	1.26	–
NCCNCCNc1ccc(NCCNCCN)c2c1C(=O)c1c(O)ccc(O)c1C2=O	> 100 µM	> 100 µM	> 100 µM	> 100 µM	> 100 µM	> 100	> 100 µM	> 100 µM	> 100 µM	> 100 µM	–	–	–	–	–	–	–	–	–
CCc1ccc2c(c1)C(=O)c1c-2n(CCCN)c(=O)c2cc([N+](=O)[O-])ccc12	3.08 µM	2.43 µM	4.06 µM	3.01 µM	2.29 µM	–	2.49 µM	3.12 µM	2.78 µM	–	1.02	2.34	1.6	1.07	–	1.2	1.6	1.37	1.56
CCOC(=O)Nc1cc2c(c(N)n1)N=C(c1ccc3ccccc3c1)CN2	17.5 µM	3.94 µM	6.16 µM	0.427 µM	> 100 µM	0.0944	> 60.7 µM	4.69 µM	–	3.5 µM	–	–	–	–	–	–	–	–	–
c1ccc([P+](c2ccccc2)(c2ccccc2)c2ccc(-c3ccc([P+](c4ccccc4)(c4ccccc4)c4ccccc4)cc3)cc2)cc1	> 100 µM	> 100 µM	–	> 100 µM	> 100 µM	> 100	> 100 µM	3.32 µM	> 100 µM	71 µM	–	–	–	–	–	–	–	–	–
CN(C)CCCN1c2ccc([N+](=O)[O-])cc2CCc2cc([N+](=O)[O-])ccc21	31 µM and 28 µM	28.6 µM and 33.1 µM	20 µM and 18 µM	30.6 µM and 37.8 µM	30.2 µM and 27.6 µM	28.4	23.3 µM and 24.3 µM	29.5 µM and 23.1 µM	30.4 µM and 25.6 µM	32.8 µM and 33.4 µM	–	–	–	–	–	–	–	–	–
CO/N=C(\C)c1cccc(Nc2nc3ccccc3c3occc23)c1	30.7 µM	24.5 µM	20.3 µM	26.9 µM	33.2 µM	37.7	26 µM	28.7 µM	28.7 µM	7.38 µM	–	–	–	–	–	–	–	–	–
N=C(N)SCc1cccc([N+](=O)[O-])c1	–	> 31.6 µM	60.9 µM	68.3 µM	97.3 µM	> 85.9	–	> 100 µM	> 78.1 µM	67.2 µM	–	–	–	–	–	–	–	–	–
CCO[C@]12CCC[C@H]1[C@@H]1C(=O)c3ccccc3C(=O)C1=C(C)O2	> 100 µM	> 100 µM	> 100 µM	> 100 µM	> 100 µM	> 100	> 100 µM	> 100 µM	> 100 µM	–	–	–	–	–	–	–	–	–	–
O=C(CSc1nc2ccc(I)cc2c(=O)n1Cc1ccccc1)NN1C(=O)c2ccccc2C1=O	> 100 µM	> 100 µM	35.9 µM	15.5 µM	30.1 µM	–	30.4 µM	68.6 µM	24 µM	23.5 µM	–	–	–	–	–	–	–	–	–
CCOP(=O)(OCC)C(Nc1cccc(F)c1)c1ccc(N(C)C)cc1 (stereo not given)	> 100 µM	> 100 µM	> 100 µM	> 100 µM	> 100 µM	> 100	> 100 µM	> 100 µM	> 100 µM	> 100 µM	–	–	–	–	–	–	–	–	–
Cc1c2cc[n+](C)cc2c(C)c2c1oc1ccccc12	31.5 µM	11.6 µM	32.7 µM	13 µM	3.37 µM	45.9	98.8 µM	14.1 µM	11.2 µM	10.1 µM	–	–	–	–	–	–	–	–	–

— PubChem BioAssay (NCI)
